Assay results published in ChEMBL document CHEMBL5512674, “Novel Acyl Thiourea-Based Hydrophobic Tagging Degraders Exert Potent Anti-Influenza Activity through Two Distinct Endonuclease Polymerase Acidic-Targeted Degradation Pathways” (J Med Chem, 2024).
Activity calls are given as the source filed them. No cut-off for these calls is given here.

Experiments:
Influenza A virus [1] = test: Anti-influenza activity against Influenza A virus A/WSN/33(H1N1) infected in HEK293T cells assessed as reduction in virus-induced cytopathic effect incubated for 48 hrs by CCK-8 assay; assay type: functional, organism-based; conditions: HEK-293T
[2] = Selectivity index, ratio of CC50 for cytotoxicity against human HEK293T cells to EC50 for anti-influenza activity against Influenza A virus A/WSN/33(H1N1) infected in HEK293T cells assessed as reduction in virus-induced cytopathic effect; assay type: toxicity, cell-based; conditions: read-out: Ratio CC50/EC50
Influenza B virus [3] = test: Anti-influenza activity against Influenza B virus Yamagata/16/88 infected in HEK293T cells assessed as reduction in virus-induced cytopathic effect incubated for 48 hrs by CCK-8 assay; assay type: functional, organism-based; conditions: Yamagata/16/88, HEK-293T
Influenza B virus [4] = test: Anti-influenza activity against Influenza B virus Victoria/2/87 infected in HEK293T cells assessed as reduction in virus-induced cytopathic effect incubated for 48 hrs by CCK-8 assay; assay type: functional, organism-based; conditions: Victoria/2/87, HEK-293T
[5] = Half life in mouse liver microsomes preincubated for 5 mins followed by NADPH addition and measured for 45 mins by LC-MS analysis; assay type: ADME, Microsome; conditions: time 50 min
[6] = Half life in dog liver microsomes preincubated for 5 mins followed by NADPH addition and measured for 45 mins by LC-MS analysis; assay type: ADME, Canis lupus familiaris, Microsome; conditions: time 50 min
[7] = Half life in human liver microsomes preincubated for 5 mins followed by NADPH addition and measured for 45 mins by LC-MS analysis; assay type: ADME, Microsome; conditions: time 50 min
[8] = Intrinsic clearance in dog liver microsomes preincubated for 5 mins followed by NADPH addition and measured for 45 mins by LC-MS analysis; assay type: ADME, Canis lupus familiaris, Microsome; conditions: time 50 min, read-out: CLH
[9] = Hepatic clearance in human liver microsomes preincubated for 5 mins followed by NADPH addition and measured for 45 mins by LC-MS analysis; assay type: ADME, Microsome; conditions: time 50 min
[10] = Hepatic extraction ratio in mouse liver microsomes preincubated for 5 mins followed by NADPH addition and measured for 45 mins by LC-MS analysis; assay type: ADME, Microsome; conditions: time 50 min, read-out: ERH
[11] = Hepatic extraction ratio in dog liver microsomes preincubated for 5 mins followed by NADPH addition and measured for 45 mins by LC-MS analysis; assay type: ADME, Canis lupus familiaris, Microsome; conditions: time 50 min, read-out: ERH
[12] = Hepatic extraction ratio in human liver microsomes preincubated for 5 mins followed by NADPH addition and measured for 45 mins by LC-MS analysis; assay type: ADME, Microsome; conditions: time 50 min, read-out: ERH
[13] = Stability in human plasma assessed as compound remaining by LC-MS/MS analysis; assay type: ADME, cell-free
[14] = Stability in human plasma assessed as compound remaining measured after 5 mins by LC-MS/MS analysis; assay type: ADME, cell-free; conditions: read-out: Stability
[15] = Stability in human plasma assessed as compound remaining measured after 15 mins by LC-MS/MS analysis; assay type: ADME, cell-free; conditions: read-out: Stability
[16] = Stability in human plasma assessed as compound remaining measured after 30 mins by LC-MS/MS analysis; assay type: ADME, cell-free; conditions: read-out: Stability
[17] = Stability in human plasma assessed as compound remaining measured after 60 mins by LC-MS/MS analysis; assay type: ADME, cell-free; conditions: read-out: Stability
[18] = Stability in human plasma assessed as compound remaining measured after 120 mins by LC-MS/MS analysis; assay type: ADME, cell-free; conditions: read-out: Stability
[19] = Half life in human plasma by LC-MS/MS analysis; assay type: ADME, cell-free
[20] = molecular target: von Hippel-Lindau disease tumor suppressor/Polymerase basic protein 1 (Influenza A virus (strain A/Puerto Rico/8/1934 H1N1)) (UniProt P03431+P40337); test: PROTAC activity at Influenza A virus A/WSN/33(H1N1) flag tagged Polymerase basic protein 1/VHL (unknown origin) expressed in HEK293T cells assessed as degradation of PB1 expression at 10 ug/ml incubated for 24 hrs by Western blotting analysis; assay type: cell-based; conditions: dose 10.0 µg/ml
[21] = molecular target: von Hippel-Lindau disease tumor suppressor/Polymerase acidic protein (Influenza A virus (A/Puerto Rico/8/1934(H1N1)), UniProt P03433+P40337); test: PROTAC activity at Influenza A virus A/WSN/33(H1N1) flag tagged Polymerase acidic protein/VHL (unknown origin) expressed in HEK293T cells assessed as degradation of PA expression incubated for 24 hrs by Western blotting analysis; assay type: cell-based
[22] = molecular target: T1, von Hippel-Lindau disease tumor suppressor/Polymerase acidic protein (Influenza A virus (A/Puerto Rico/8/1934(H1N1))) (UniProt P03433+P40337); test: PROTAC activity at Influenza A virus A/WSN/33(H1N1) flag tagged Polymerase acidic protein/VHL (unknown origin) expressed in HEK293T cells assessed as degradation of PA expression at 10 uM by Western blotting analysis; assay type: cell-based; conditions: TDE = time-dependent effect
[23] = molecular target: T1, von Hippel-Lindau disease tumor suppressor/Polymerase acidic protein (Influenza A virus (A/Puerto Rico/8/1934(H1N1))); test: PROTAC activity at Influenza A virus A/WSN/33(H1N1) flag tagged Polymerase acidic protein/VHL (unknown origin) expressed in HEK293T cells assessed as degradation of PA expression at 10 uM incubated for 24 to 48 hrs by Western blotting analysis; assay type: cell-based; conditions: time 24-48 hrs
[24] = molecular target: T1, von Hippel-Lindau disease tumor suppressor/Polymerase acidic protein (Influenza A virus (A/Puerto Rico/8/1934(H1N1))); test: PROTAC activity at Influenza A virus A/WSN/33(H1N1) flag tagged Polymerase acidic protein/VHL (unknown origin) expressed in HEK293T cells assessed as degradation of PA expression at 10 uM incubated for 72 hrs by Western blotting analysis; assay type: cell-based
[25] = molecular target: T1, von Hippel-Lindau disease tumor suppressor/Polymerase acidic protein (Influenza A virus (A/Puerto Rico/8/1934(H1N1))); test: PROTAC activity at Influenza A virus A/WSN/33(H1N1) flag tagged Polymerase acidic protein/VHL (unknown origin) expressed in HEK293T cells assessed as degradation of PA expression at 5 uM incubated for 24 hrs by Western blotting analysis; assay type: cell-based
[26] = molecular target: T1, von Hippel-Lindau disease tumor suppressor/Polymerase acidic protein (Influenza A virus (A/Puerto Rico/8/1934(H1N1))); test: PROTAC activity at Influenza A virus A/WSN/33(H1N1) flag tagged Polymerase acidic protein/VHL (unknown origin) expressed in HEK293T cells assessed as degradation of PA expression at 5 uM incubated for 24 hrs in presence of bortezomib by Western blotting analysis; assay type: cell-based
[27] = molecular target: T1, von Hippel-Lindau disease tumor suppressor/Polymerase acidic protein (Influenza A virus (A/Puerto Rico/8/1934(H1N1))); test: PROTAC activity at Influenza A virus A/WSN/33(H1N1) flag tagged Polymerase acidic protein/VHL (unknown origin) expressed in HEK293T cells assessed as degradation of PA expression at 5 uM incubated for 24 hrs in presence of 3-methyladenine by Western blotting analysis; assay type: cell-based
[28] = molecular target: T1, von Hippel-Lindau disease tumor suppressor/Polymerase acidic protein (Influenza A virus (A/Puerto Rico/8/1934(H1N1))); test: PROTAC activity at Influenza A virus A/WSN/33(H1N1) flag tagged Polymerase acidic protein/VHL (unknown origin) expressed in HEK293T cells assessed as degradation of PA expression at 5 uM incubated for 24 hrs in presence of chloroquine by Western blotting analysis; assay type: cell-based
Influenza A virus [29] = test: Anti-influenza activity against Influenza A virus A/WSN/33(H1N1) infected in MDCK cells assessed as downregulation of nucleoprotein expression at 100 nM incubated for 24 hrs by Western blotting analysis relative to control; assay type: functional
Influenza A virus [30] = test: Anti-influenza activity against Influenza A virus A/PR/8/34 (H1N1) infected in MDCK cells assessed as inhibition of viral growth at 1 uM incubated for 48 hrs by luciferase assay relative to control; assay type: functional
Enterovirus = test: Antiviral activity against Enterovirus 71 infected in RD cells assessed as inhibition of viral replication incubated for 24 hrs by CCK-8 assay; assay type: functional, organism-based
enterovirus D68 = test: Antiviral activity against enterovirus D68 infected in RD cells assessed as inhibition of viral replication incubated for 24 hrs by CCK-8 assay; assay type: functional, organism-based
[31] = molecular target: Voltage-gated inwardly rectifying potassium channel KCNH2 (Homo sapiens, UniProt Q12809); test: Inhibition of hERG; assay type: toxicity

CC(C)(C)OC(=O)NCCCC[C@H](NC(=O)OC(C)(C)C)C(=O)NCCCCCCCC(=O)Nc1ccc(NC(=S)NC(=O)c2ccc(C(C)(C)C)cc2)cc1
EC50 (Influenza A virus [1]): 15 nM | selectivity ratio [2]: > 6670 | EC50 (Influenza B virus [3]): 73 nM | EC50 (Influenza B virus [4]): 67 nM | half-life [5]: 32.1 min | half-life [6]: 19.6 min | half-life [7]: 12.7 min | CLint scaled [8]: 177 mL/min/kg | CLhep predicted [9]: 18 mL/min/kg | hepatic extraction ratio at 0.75 h [10]: 0.654 | hepatic extraction ratio at 0.75 h [11]: 0.851 | hepatic extraction ratio at 0.75 h [12]: 0.588 | Stability [13]: 100% | remaining at 5 min [14]: 96.8% | remaining at 0.25 h [15]: 109% | remaining at 0.5 h [16]: 108% | remaining at 1 h [17]: 96.9% | remaining at 2 h [18]: 72% | half-life [19]: 246 min | Activity [20]: inactive | DC50 [21]: 60 nM | Activity [22]: Tde | Activity [23]: Active | Activity [24]: Active | Activity [25]: Active | Activity [26]: inactive | Activity [27]: inactive | Activity [28]: inactive | Activity (Influenza A virus [29]): 35% | inhibition at 1 µM (Influenza A virus [30]): 96% | Activity (Enterovirus): Active | Activity (enterovirus D68): Active | inhibition (INH) [31]: Not Active
